Experimental data reported in US20240115731A1, “METHOD OF DELIVERING MRNA IN VIVO” (PCI Biotech AS, priority 2021, published 2024).

Experiments:
BL/6 mouse skin [1] = experiment: Intradermal naked mRNA delivery, IVIS bio-luminescence imaging of injection sites; assay type: in vivo, mice; details: Example 5: intradermal, 2 μg mRNA + 0.003 μg TPCS2a, blue light 30 seconds after administration
Procedure: (§1) • 1. 20-24 hours after light (or TPCS2a injection), mice were given an intraperitoneal injection of 3 mg D-Luciferin (200 μl of 15 mg/ml stock). • 2. After approximately 10 minutes the mice were anaesthetized by a subcutaneous injection of Zoletil (15 mg/kg xylasin, 7.5 mg/kg butorphanol, 9 mg/kg zolazepam, and 9 mg tiletamine) • 3. 20 minutes after D-luciferin (Caliper Life Sciences) injection, the mice were placed in the IVIS instrument (IVIS Spectrum, model 124375R from PerkinElmer, Andor camera IS0825R4582; iKon Living Image version: 4.5.2.18424. Binning factor: 8; Excitation filter: Block; Emission filter: Open; f Number: 1) and pictures were taken with automatic exposure of Luminescence. • 4. Bio-luminescence is expressed as “Total Flux” (photon/second)×10^5.
(§2) The materials and methods were as used in Example 1, except that the administration was intradermal and blue light was used (wavelength between 400 and 540 nm with a peak at around 435 nm from the LumiSource illumination device produced by PCI Biotech AS, with a 13 mW/cm^2 fluence rate—a 6 minute illumination delivers 4.7 J/cm^2). Luciferase activity was assessed as set out in Example 1 except that skin homogenates were used.
The materials and methods were as used in Example 2. Animals were injected at two sites (left or right). IVIS was examined as set out in Example 1. […]

BL/6 mice = experiment: Conclusions from Examples: fold increase (PCI/mRNA alone), IVIS and luciferase assay; assay type: in vivo; details: illumination 30 seconds after mRNA/photosensitiser injection
Procedure: Good correspondence between the IVIS and luciferase assay results was observed. The fold increase (PCI/mRNA alone) with illumination only 30 seconds after mRNA/photosensitiser injection is higher than has been achieved in earlier experiments in which illumination was conducted 60 minutes after injection (3-5 times improvement). The improvement relative to using no photosensitiser is in the order of 30 fold. Shorter contact times were also effective at very low photosensitiser dose allowing for reduced side effects in subjects.

[2] = tested on: thigh muscle of C57BL/6 mice; experiment: Intramuscular naked mRNA delivery, luciferase assay in muscle homogenates; assay type: in vivo
Text: (§3) Female mice of the strain C57BL/6 (Charles River) were used. Animal identification and conditions of housing, acclimatisation, environment, diet and water was in accordance with the current Standard Operating Procedures at the animal facilities at Oslo University Hospital—The Radium Hospital. Age and weight at start of dosing: 5-6 weeks, 18-20 g. The injection area was shaved before illumination.
(§4) Firefly luciferase mRNA (L-7202—with modified base 5-methoxyuridine (5 moU), and with the TriLink CleanCap™ modification as the capping structure, purchased from TriLink Biotechnologies, San Diego, USA) was used.
(§5) TPCS2a (Amphinex®, PCI Biotech AS, Norway) was used mixed in a volume of 20 μl PBS (e.g. using a 0.000015 μg/μl solution for a 0.0003 μg dose).
(§6) mRNA (in aqueous solution, 20 μl of 0.1 μg/μl from stock solution of 1 μg/μl) in the amounts indicated in the table below were injected into the thigh muscle of each animal, with or without TPCS2a in the amounts indicated.
(§7) […] Animals 7-12 were not illuminated. 20 hours after the injections the animals were analysed by IVIS and assayed for luciferase activity (Luciferase Assay System, Promega, Cat #E1500) in muscle homogenates.
(§8) Muscle homogenates were prepared from frozen tissue samples using a Precelly homogenizer and lysis buffer with phosphatase and protease inhibitors (MSD, Cat. No. R60TX-2, R70AA-1). Protein analysis was performed using the DC Protein Assay (Biorad). Luciferase is expressed as relative units (RLU=relative luminescence units) per mass of protein in the samples.

BL/6 mouse skin [3] = experiment: Intradermal naked mRNA delivery, luciferase assay in skin homogenates; assay type: in vivo, mice
Procedure: as §8, §2
The materials and methods were as used in Example 2. Luciferase activity was assessed as set out in Example 1 except that skin homogenates were used.
The materials and methods were as used in Example 3 but with even lower doses. Luciferase activity was assessed as set out in Example 1 except that skin homogenates were used.

[4] = tested on: thigh muscle of C57BL/6 mice; experiment: Intramuscular naked mRNA delivery, IVIS bio-luminescence imaging of injection sites; assay type: in vivo
Text: as §3, §4, §5, §6, §7, §1

[5] = Example 6: intramuscular, 2 μg mRNA + 0.0003 or 0.0001 μg TPCS2a, blue light 30 seconds after injection

Substance: tetraphenyl chlorin disulfonate [TPCS2a]
- increase of bio-luminescence of PCI sites vs control sites receiving mRNA only (BL/6 mouse skin [1]): around 7.2 fold
- improvement of fold increase (PCI/mRNA alone) with illumination 30 seconds after injection over earlier experiments with illumination 60 minutes after injection (BL/6 mice): 3-5 times
- improvement relative to using no photosensitiser (BL/6 mice): ~30 fold
- mean fold of increase for the PCI treated sites vs mRNA only sites (luciferase assay) ([2]; Example 1: intramuscular, 2 μg mRNA + 0.0003 μg TPCS2a, red light 652 nm 1 J/cm^2 5 minutes after injection, 20 hours): 4.9 times
- effectiveness of low photosensitiser dose (luminescence and luciferase activity) ([2]; Example 6: intramuscular, 2 μg mRNA + 0.0001 μg TPCS2a, blue light 30 seconds after injection): highly effective
- luciferase activity of PCI sites vs control sites receiving mRNA only [2, 5]: significantly stronger
- luciferase activity in muscle, effectiveness at lower dose ([2]; Example 7: intramuscular, 2 μg mRNA + 0.0003 μg TPCS2a, blue light 30 seconds after injection): effective
- luciferase activity in muscle, effectiveness by photosensitiser dose ([2]; Example 8: intramuscular, 2 μg mRNA + 0.0003 μg TPCS2a (vs 0.003 and 0.1 μg), blue light 10 minutes after injection): more effective than the higher doses
- increase by PCI (luciferase assay) ([2]; Example 9: intramuscular, 2 μg mRNA + 0.0001 μg TPCS2a, red light 0.3 to 3 J/cm^2, 5 minute interval): 8-9 fold
- effect of PCI (luciferase assay), 10 minute interval ([2]; Example 9: intramuscular, 2 μg mRNA + 0.0001 μg TPCS2a, red light 0.3 to 3 J/cm^2, 10 minute interval): effective but not at the same levels as the 5 minute interval
- enhancement of mRNA delivery (luciferase assay), longer contact times (BL/6 mouse skin [3]; Example 2: intradermal, 2 μg mRNA + 0.003 μg TPCS2a, blue light, 30 or 60 min contact time): much less effective
- enhancement of mRNA delivery (luciferase assay) vs mRNA alone (BL/6 mouse skin [3]; Example 2: intradermal, 2 μg mRNA + 0.003 μg TPCS2a, blue light, 10 minute contact time): about 20 times
- luciferase activity in skin, effectiveness by photosensitiser dose (BL/6 mouse skin [3]; Example 3: intradermal, 2 μg mRNA + 0.003 μg TPCS2a (vs 0.01 and 0.05 μg), blue light 30 seconds after injection): more effective than higher doses
- luciferase activity in skin, effectiveness at lower dose (BL/6 mouse skin [3]; Example 4: intradermal, 2 μg mRNA + 0.0003 μg TPCS2a, blue light 30 seconds after injection): effective
- bio-luminescence of PCI sites vs control sites receiving mRNA only ([4]; Example 1: intramuscular, 2 μg mRNA + 0.0003 μg TPCS2a, red light 1 J/cm^2 5 minutes after injection): significantly stronger luminescence
- bio-luminescence of PCI sites vs control sites receiving mRNA only [4, 5]: significantly stronger luminescence
- bio-luminescence, effect of PCI at very low dose ([4]; Example 10: intramuscular, 2 μg mRNA + 0.000003 μg TPCS2a, red light 1 J/cm^2, 5 minute interval): An effect was observed
- increase of bio-luminescence by PCI ([4]; Example 10: intramuscular, 2 μg mRNA + 0.0001 μg TPCS2a, red light 1 J/cm^2, 5 minute interval): 5 fold
- increase of bio-luminescence by PCI ([4]; Example 10: intramuscular, 2 μg mRNA + 0.0003 μg TPCS2a, red light 1 J/cm^2, 5 minute interval): 7 fold
